Structures are written as SMILES.

This test has as its target AMPK. Put plainly: AMPK activation, enzyme-linked immunosorbent assay. The test is classed as biochemical. The conditions noted are these: Table 14, compounds of Table 7. In a few lines:
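AMPK activation by test compounds was measured by enzyme-linked immunosorbent assay.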
As to `O=C(NC1CCN(Cc2ccc(OC(F)(F)F)cc2)CC1)c1ccc(C(=O)N2CCC(C(=O)c3ccc(N4CCCC4)cc3)CC2)nc1` [Compound 7-110, 6-(4-(4-(pyrrolidin-1-yl)benzoyl)piperidine-1-carbonyl)-N-(1-(4-(trifluoromethoxy)benzyl)piperidin-4-yl)nicotinamide], the EC50 was < 1000 nM.

Regarding `O=C(NC1CCN(Cc2cccc(OC(F)(F)F)c2)CC1)c1ccc(C(=O)N2CCC(C(=O)c3ccc(N4CCCC4)cc3)CC2)nc1` [Compound 7-111, 6-(4-(4-(pyrrolidin-1-yl)benzoyl)piperidine-1-carbonyl)-N-(1-(3-(trifluoromethoxy)benzyl)piperidin-4-yl)nicotinamide], the EC50 was < 1000 nM.

Regarding `N#Cc1ccc(O[C@H]2CC[C@@H](NC(=O)c3ccc(C(=O)N4CCC(C(=O)c5ccc(N6CCCC6)cc5)CC4)nc3)CC2)cc1` [Compound 7-112, N-((cis)-4-(4-cyanophenoxy)cyclohexyl)-6-(4-(4-(pyrrolidin-1-yl)benzoyl)piperidine-1-carbonyl)nicotinamide], the EC50 is < 1000 nM. With `COc1ccc(CN2CCC(NC(=O)c3ccc(C(=O)N4CCC(C(=O)c5ccc(N6CCCC6)cc5)CC4)nc3)CC2)cc1F` [Compound 7-113, N-(1-(3-fluoro-4-methoxybenzyl)piperidin-4-yl)-6-(4-(4-(pyrrolidin-1-yl)benzoyl)piperidine-1-carbonyl)nicotinamide], the EC50 was < 1000 nM. Next, `O=C(NC1CCN(Cc2ccc(N3CCCC3)cc2)CC1)c1ccc(C(=O)N2CCC(C(=O)c3ccc(N4CCCC4)cc3)CC2)nc1` [Compound 7-114, 6-(4-(4-(pyrrolidin-1-yl)benzoyl)piperidine-1-carbonyl)-N-(1-(4-(pyrrolidin-1-yl)benzyl)piperidin-4-yl)nicotinamide]: < 1000 nM; `COc1ccc(C(=O)C2CCN(C(=O)c3ccc(C(=O)NC4CCNCC4)cn3)CC2)cc1` [Compound 7-115, 6-(4-(4-methoxybenzoyl)piperidine-1-carbonyl)-N-(piperidin-4-yl)nicotinamide]: 50000 to 100000 nM; `CC(C)Oc1ccc(CN2CCC(NC(=O)c3ccc(C(=O)N4CCC(C(=O)c5ccc(N6CCCC6)cc5)CC4)nc3)CC2)cc1` [Compound 7-116, N-(1-(4-isopropoxybenzyl)piperidin-4-yl)-6-(4-(4-(pyrrolidin-1-yl)benzoyl)piperidine-1-carbonyl)nicotinamide]: < 1000 nM.

On to `N#Cc1ccc(CN2CCC(NC(=O)c3ccc(C(=O)N4CCC(C(=O)c5ccc(N6CCCC6)cc5)CC4)nc3)CC2)cc1F` [Compound 7-117, N-(1-(4-cyano-3-fluorobenzyl)piperidin-4-yl)-6-(4-(4-(pyrrolidin-1-yl)benzoyl)piperidine-1-carbonyl)nicotinamide], for which the EC50 is < 1000 nM. The figure for `N#Cc1ccc(CN2CCC(NC(=O)c3ccc(C(=O)N4CCC(Oc5ccc(S(=O)(=O)C(F)(F)F)cc5)CC4)nc3)CC2)cc1` [Compound 7-118, N-(1-(4-cyanobenzyl)piperidin-4-yl)-6-(4-(4-(trifluoromethylsulfonyl)phenoxy)piperidine-1-carbonyl)nicotinamide] is < 1000 nM; for `COc1ccc(CN2CCC(NC(=O)c3ccc(C(=O)N4CCC(Oc5ccc(C(=O)C6CC6)cc5)CC4)nc3)CC2)cc1` [Compound 7-120, 6-(4-(4-(cyclopropanecarbonyl)phenoxy)piperidine-1-carbonyl)-N-(1-(4-methoxybenzyl)piperidin-4-yl)nicotinamide] it is < 1000 nM. With `CS(=O)(=O)c1ccc(OC2CCN(C(=O)c3ccc(C(=O)Nc4ccc(Oc5ccc(C#N)cc5)nc4)cn3)CC2)cc1` [Compound 7-121, N-(6-(4-cyanophenoxy)pyridin-3-yl)-6-(4-(4-(methylsulfonyl)phenoxy)piperidine-1-carbonyl) nicotinamide], the EC50 is < 1000 nM.

The EC50 is the concentration that produces a half-maximal response.
